Some test systems named below: KM20L2 colon; MALME-3M melanoma; HT29 colon; HCT-15 colon; MOLT-4 leukemia; SNB-78 CNS; NCI-H522 lung; OVCAR-8 ovarian; K-562 leukemia; HCT-116 colon; DLD-1 colon; MDA-MB-435; MCF7 breast; MDA-MB-231 breast.
What all share (test): DTP human tumour cell line panel, 48 h

Consider 19 molecules from PubChem BioAssay (NCI).

Broadly, the TGI is the concentration at which net growth stops. A higher TGI goes with less potent growth arrest.

Structures are written as SMILES.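 A five-concentration, 48-hour dose response in 96-well plates underlies each endpoint, interpolated linearly between surrounding concentrations. TGI marks complete inhibition of growth.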

As to `COc1cc2c(cc1OC)C(=O)C(C1=C(SC(=N)N)C(=O)c3cc(OC)c(OC)cc31)C2` (stereo not given), the TGI with KM20L2 colon, in the assay on MALME-3M melanoma, with HT29 colon, with HCT-15 colon, in the assay on MOLT-4 leukemia and with SNB-78 CNS was greater than 100 µM in each case. Besides, the TGI with NCI-H522 lung, with OVCAR-8 ovarian, in the assay on K-562 leukemia, with HCT-116 colon and in the assay with DLD-1 colon was greater than 100 µM throughout.

In the case of `C=CCN(C)CN(C)c1nc(N(C)C)nc(N(C)C)n1`, the TGI with KM20L2 colon, in the assay with MALME-3M melanoma, with HT29 colon, with HCT-15 colon, in the assay on MOLT-4 leukemia and with SNB-78 CNS was greater than 100 µM each time. The TGI is 51.5 µM with NCI-H522 lung; greater than 100 µM in the assay on OVCAR-8 ovarian; greater than 100 µM in the assay with K-562 leukemia; greater than 100 µM in the assay with HCT-116 colon; greater than 100 µM in the assay on DLD-1 colon.

`Cn1c2cc(O)cc(O)c2c(=O)c2c([N+](=O)[O-])cccc21`: the TGI in the assay on KM20L2 colon, in the assay on MALME-3M melanoma, in the assay on HT29 colon, in the assay with HCT-15 colon, in the assay with MOLT-4 leukemia and with SNB-78 CNS was greater than 100 µM throughout. For the same molecule, the TGI in the assay with NCI-H522 lung, in the assay with OVCAR-8 ovarian, in the assay with K-562 leukemia, in the assay with HCT-116 colon and in the assay with DLD-1 colon was greater than 100 µM throughout.

Regarding `O=c1cc(-c2ccccc2)oc2cc(OCCSCCCCCCCCCCSCCOc3ccc4c(=O)cc(-c5ccccc5)oc4c3)ccc12`, the TGI in the assay with KM20L2 colon, with MALME-3M melanoma, in the assay on HT29 colon, in the assay on HCT-15 colon, in the assay on MOLT-4 leukemia and with SNB-78 CNS was greater than 100 µM throughout. The TGI with NCI-H522 lung, in the assay on OVCAR-8 ovarian, in the assay on K-562 leukemia, in the assay on HCT-116 colon and in the assay on DLD-1 colon was greater than 100 µM throughout.

Turning to `CCOC(=O)c1ccc(-n2c(SCC)nc3sc(C)c(C)c3c2=O)cc1`, the TGI with KM20L2 colon, with MALME-3M melanoma, in the assay on HT29 colon, in the assay on HCT-15 colon, in the assay with SNB-78 CNS and in the assay on NCI-H522 lung was greater than 100 µM each time. For the same molecule, the TGI in the assay with OVCAR-8 ovarian, with K-562 leukemia, with HCT-116 colon and in the assay on DLD-1 colon was greater than 100 µM throughout.

As for `CC(C)C(/C=C/c1ccc(Br)cc1)=N\NC(N)=O`, the TGI in the assay with KM20L2 colon, in the assay with HT29 colon, in the assay on HCT-15 colon, in the assay on MOLT-4 leukemia, in the assay on SNB-78 CNS and in the assay on NCI-H522 lung was greater than 100 µM throughout. In addition, the TGI with OVCAR-8 ovarian, in the assay on K-562 leukemia, in the assay with HCT-116 colon and in the assay with DLD-1 colon was greater than 100 µM throughout.

In the case of `[N-]=[N+]=NC(CBr)c1cn([C@H]2C[C@H](O)[C@@H](CO)O2)c(=O)[nH]c1=O` (stereo not given in full), the TGI in the assay with KM20L2 colon, with MALME-3M melanoma, with HT29 colon, with HCT-15 colon, in the assay on MOLT-4 leukemia and with SNB-78 CNS was greater than 100 µM throughout. The TGI in the assay on NCI-H522 lung, with OVCAR-8 ovarian, in the assay with K-562 leukemia, with HCT-116 colon and in the assay with DLD-1 colon was greater than 100 µM each time.

`N=C(N)SCc1cccc2c(=O)cc(-c3ccccc3)oc12`: the total growth inhibition concentration (TGI) is 45.6 µM in the assay on KM20L2 colon; 27.2 µM with MALME-3M melanoma; 24.8 µM in the assay on HT29 colon; greater than 65.7 µM with HCT-15 colon; 8.79 µM with MOLT-4 leukemia; 31.7 µM in the assay with SNB-78 CNS. The TGI in the assay on NCI-H522 lung is 13.6 µM; with MDA-MB-435, 21.5 µM; in the assay with MCF7 breast, 16.3 µM; in the assay on OVCAR-8 ovarian, 29.8 µM; with K-562 leukemia, greater than 42.2 µM; with HCT-116 colon, 19.7 µM. The TGI turned out to be 21.4 µM in the assay on MDA-MB-231 breast and 48.5 µM with DLD-1 colon.

For `CSc1nc2[nH]c(=O)c(C)nc2c(=O)[nH]1`, the TGI in the assay on KM20L2 colon, with MALME-3M melanoma, in the assay on HT29 colon, in the assay with HCT-15 colon, in the assay on MOLT-4 leukemia and with NCI-H522 lung was greater than 100 µM throughout. Besides, the TGI with OVCAR-8 ovarian, with K-562 leukemia, with HCT-116 colon and in the assay on DLD-1 colon was greater than 100 µM throughout.

Consider `CC(=O)OC1CC[C@]2(C)C3CC[C@@]4(C)C(CCC4[C@H](C)CCCC(C)C)[C@@H]3CCC2(Br)C1` (stereo not given in full), for which the TGI in the assay on MALME-3M melanoma is 23.2 µM; in the assay on HT29 colon, greater than 50 µM; in the assay on HCT-15 colon it was 33.2 µM; in the assay on MOLT-4 leukemia it was 28 µM; in the assay with NCI-H522 lung, 29.1 µM; in the assay with MDA-MB-435, 19.4 µM. Further, the TGI came to 23.3 µM with MCF7 breast; 26.5 µM with OVCAR-8 ovarian; 35.2 µM with K-562 leukemia; 16.5 µM in the assay on HCT-116 colon; 38 µM in the assay on MDA-MB-231 breast.

Regarding `NC(=Nc1ccc(O)cc1)S(=O)O`, the TGI in the assay with MALME-3M melanoma, with HT29 colon, with HCT-15 colon, with MOLT-4 leukemia, in the assay on NCI-H522 lung and in the assay on MDA-MB-435 was greater than 100 µM in each case. In addition, the TGI with MCF7 breast, in the assay on OVCAR-8 ovarian, in the assay on K-562 leukemia, in the assay with HCT-116 colon and with MDA-MB-231 breast was greater than 100 µM each time.

In the case of `COC(=O)[C@@H]1C[C@@H]2c3ccccc3N(S(=O)(=O)c3ccccc3)[C@@H]2N1C(=O)OC`, the TGI with MALME-3M melanoma, with HT29 colon, in the assay with HCT-15 colon, in the assay with MOLT-4 leukemia, in the assay on NCI-H522 lung and in the assay with MDA-MB-435 was greater than 100 µM throughout. Besides, the TGI with MCF7 breast, in the assay on OVCAR-8 ovarian, in the assay with K-562 leukemia, in the assay on HCT-116 colon and in the assay on MDA-MB-231 breast was greater than 100 µM each time.

With `Cc1ccc(/C=C/C(=O)c2cc(CN(C)C)c(O)c(CN(C)C)c2)cc1`, the concentration for total growth inhibition (TGI) in the assay on MALME-3M melanoma worked out at 35.6 µM; in the assay on HT29 colon it was 33 µM; with HCT-15 colon, 45.4 µM; in the assay with MOLT-4 leukemia, 57.2 µM; in the assay with NCI-H522 lung it was 31.7 µM; in the assay on MDA-MB-435, 57 µM. In addition, the TGI with MCF7 breast was 50.1 µM; in the assay on OVCAR-8 ovarian, 78.9 µM; in the assay on K-562 leukemia, 43.9 µM; in the assay on HCT-116 colon it was 39.7 µM; in the assay on MDA-MB-231 breast, 27.2 µM.

On to `C=C1CN(Cc2ccccc2)[C@@H]2CCCCC[C@H](C#N)[C@H]12`, for which the concentration for total growth inhibition (TGI) in the assay with MALME-3M melanoma, in the assay on HT29 colon, in the assay with HCT-15 colon, with MOLT-4 leukemia, in the assay on NCI-H522 lung and with MDA-MB-435 was greater than 100 µM in each case. Also, the TGI with MCF7 breast, with OVCAR-8 ovarian, in the assay on K-562 leukemia, in the assay on HCT-116 colon and in the assay with MDA-MB-231 breast was greater than 100 µM in each case.

In the case of `O=C1CC(=O)N(CCc2ccccc2)S(=O)(=O)N1CCc1ccccc1`, the TGI in the assay on MALME-3M melanoma is 79.5 µM; in the assay with HT29 colon it was 47.5 µM; in the assay on HCT-15 colon, greater than 100 µM; in the assay with MOLT-4 leukemia it was 44.2 µM; in the assay on NCI-H522 lung, 37.5 µM; in the assay with K-562 leukemia it was 58.1 µM. For the same molecule, the TGI in the assay on HCT-116 colon was 74.5 µM; in the assay on DLD-1 colon, greater than 100 µM.

For the molecule `COc1ccc(/C=C2\N=C(NN)N=C2Cl)cc1`, the TGI in the assay on MALME-3M melanoma, in the assay with HT29 colon, in the assay with HCT-15 colon, with MOLT-4 leukemia, with NCI-H522 lung and in the assay with MDA-MB-435 was greater than 100 µM each time. The TGI in the assay with MCF7 breast, with OVCAR-8 ovarian, in the assay with K-562 leukemia, in the assay on HCT-116 colon and with MDA-MB-231 breast was greater than 100 µM in each case.

Take `OC1CN2Cc3cc4c(cc3[C@]13C=C[C@@H](O)CC23)OCO4` (stereo not given in full): the TGI with MALME-3M melanoma, in the assay on HT29 colon, in the assay with HCT-15 colon, in the assay on MOLT-4 leukemia, in the assay on NCI-H522 lung and in the assay with MDA-MB-435 was greater than 100 µM in each case. The TGI with MCF7 breast, with OVCAR-8 ovarian, in the assay with K-562 leukemia, in the assay on HCT-116 colon and in the assay on MDA-MB-231 breast was greater than 100 µM each time.

Consider `COc1cc(/C=C2/C(=O)N(C(=O)c3ccc(Cl)cc3)N=C2C)cc(OC)c1OC`, for which the TGI in the assay on KM20L2 colon, in the assay on MALME-3M melanoma, in the assay with HT29 colon, with HCT-15 colon, with MOLT-4 leukemia and in the assay on SNB-78 CNS was greater than 100 µM in each case. Moreover, the TGI in the assay with NCI-H522 lung, in the assay with OVCAR-8 ovarian, with K-562 leukemia, with HCT-116 colon and in the assay on DLD-1 colon was greater than 100 µM each time.

As to `O=C(O)C12CCCC(CCC1)C2`, the TGI in the assay on MALME-3M melanoma, with HT29 colon, in the assay on HCT-15 colon, with MOLT-4 leukemia, in the assay with SNB-78 CNS and in the assay on NCI-H522 lung was greater than 100 µM each time. Moreover, the TGI in the assay on OVCAR-8 ovarian, in the assay with K-562 leukemia, in the assay with HCT-116 colon and with DLD-1 colon was greater than 100 µM in each case.
